Laboratory results: PubChem BioAssay AID330 (DTP/NCI, 2004)
Where “and” joins values, the source holds several entries; their conditions need not be identical. Identical values can stand only once. Inconclusive results and toxic doses are left out. Peptide text beside a SMILES is read from it.

Test system: P388 leukemia ip, CD2F1 mice, survival T/C
Assay: NCI In Vivo Anticancer Drug Screen. Data for tumor model P388 Leukemia (intraperitoneal) in CD2F1 (CDF1) mice
Settings: endpoint: median survival time, higher = longer survival
In short: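 Mice carrying the transplanted tumor received test compound or vehicle. Survival was recorded in each group, and the value is the treated-group measurement divided by that of the vehicle-treated control group.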

[1] = dose: 12.5 mg/kg/injection, schedule: Q01DX009 (ip), vehicle: Klucel (hydroxypropylcellulose) (HPC)
[2] = dose: 25.0 mg/kg/injection, schedule: Q01DX009 (ip), vehicle: Klucel (hydroxypropylcellulose) (HPC)
[3] = dose: 60.0 mg/kg/injection, schedule: Q01DX005 (ip), vehicle: saline with Tween-80
[4] = dose: 120.0 mg/kg/injection, schedule: Q01DX005 (ip), vehicle: saline with Tween-80
[5] = dose: 240.0 mg/kg/injection, schedule: Q01DX005 (ip), vehicle: saline with Tween-80
[6] = dose: 50.0 mg/kg/injection, schedule: Q01DX009 (ip), vehicle: Klucel (hydroxypropylcellulose) (HPC)
[7] = dose: 100.0 mg/kg/injection, schedule: Q01DX009 (ip), vehicle: Klucel (hydroxypropylcellulose) (HPC)
[8] = dose: 200.0 mg/kg/injection, schedule: Q01DX009 (ip), vehicle: Klucel (hydroxypropylcellulose) (HPC)
[9] = dose: 50.0 mg/kg/injection, schedule: Q01DX005 (ip), vehicle: saline with Tween-80
[10] = dose: 100.0 mg/kg/injection, schedule: Q01DX005 (ip), vehicle: saline with Tween-80
[11] = dose: 200.0 mg/kg/injection, schedule: Q01DX005 (ip), vehicle: saline with Tween-80
[12] = dose: 50.0 mg/kg/injection, schedule: Q01DX009 (ip), vehicle: saline with Tween-80
[13] = dose: 100.0 mg/kg/injection, schedule: Q01DX009 (ip), vehicle: saline with Tween-80
[14] = dose: 12.5 mg/kg/injection, schedule: Q01DX005 (ip), vehicle: saline with Tween-80
[15] = dose: 25.0 mg/kg/injection, schedule: Q01DX005 (ip), vehicle: saline with Tween-80
[16] = dose: 50.0 mg/kg/injection, schedule: Q01DX005 (ip), vehicle: Klucel (hydroxypropylcellulose) (HPC)
[17] = dose: 100.0 mg/kg/injection, schedule: Q01DX005 (ip), vehicle: Klucel (hydroxypropylcellulose) (HPC)
[18] = dose: 200.0 mg/kg/injection, schedule: Q01DX005 (ip), vehicle: Klucel (hydroxypropylcellulose) (HPC)
[19] = dose: 100.0 mg/kg/injection, schedule: Q04DX003 (ip), vehicle: saline with Tween-80
[20] = dose: 50.0 mg/kg/injection, schedule: Q01DX005 (ip), vehicle: saline
[21] = dose: 100.0 mg/kg/injection, schedule: Q01DX005 (ip), vehicle: saline
[22] = dose: 200.0 mg/kg/injection, schedule: Q01DX005 (ip), vehicle: saline

`O=[N+]([O-])c1cc(S(=O)(=O)c2ccc(F)c([N+](=O)[O-])c2)ccc1F` was tested, and the T/C (dose: 3.12 mg/kg/injection, schedule: Q01DX009 (ip), vehicle: Klucel (hydroxypropylcellulose) (HPC)) was 102 % of control, the T/C (dose: 6.25 mg/kg/injection, schedule: Q01DX009 (ip), vehicle: Klucel (hydroxypropylcellulose) (HPC)) was 108 % of control and the T/C [1] was 114 % of control. The T/C [2] was 108 % of control.

For `CN(C)c1ccc(/C=N/N=C(/C#N)[S][Sn]([S]/C(C#N)=N/N=C/c2ccc(N(C)C)cc2)([c]2ccccc2)[c]2ccccc2)cc1`, the T/C (dose: 7.5 mg/kg/injection, schedule: Q01DX005 (ip), vehicle: saline with Tween-80) was 112 % of control and the T/C (dose: 15.0 mg/kg/injection, schedule: Q01DX005 (ip), vehicle: saline with Tween-80) was 123 % of control.

For `O=C(CCN1C(=O)CC1c1ccco1)N1CCOCC1` (stereo not given), the T/C [3] was 103 % of control, the T/C [4] was 103 % of control and the T/C [5] was 97 % of control.

For `Nc1nc(N)sc(=S)n1`, the T/C [2] was 100 % of control, the T/C [6] was 107 % of control and the T/C [7] was 94 % of control. The T/C [8] was 101 % of control.

With `CC1(C)C2CC=C(C[P+](c3ccccc3)(c3ccccc3)c3ccccc3)C1C2` (stereo not given) the T/C (dose: 1.25 mg/kg/injection, schedule: Q01DX009 (ip), vehicle: saline with Tween-80) was 119 % of control and the T/C (dose: 2.5 mg/kg/injection, schedule: Q01DX009 (ip), vehicle: saline with Tween-80) was 119 % of control.

With `CCOP(=O)(O)C1CCCC(C)[N-]1.CCOP(=O)(O)C1CCCC(C)[N-]1.[Cu+2]` (stereo not given) the T/C (dose: 12.5 mg/kg/injection, schedule: Q04DX003 (ip), vehicle: Klucel (hydroxypropylcellulose) (HPC)) was 101 % of control and the T/C (dose: 25.0 mg/kg/injection, schedule: Q04DX003 (ip), vehicle: Klucel (hydroxypropylcellulose) (HPC)) was 112 % of control.

For `COc1cc2c(c(OC)c1OC)-c1ccc(OC)c(=O)cc1C(NC(=O)CO)CC2` (stereo not given), the T/C (dose: 0.16 mg/kg/injection, schedule: Q01DX009 (ip), vehicle: Klucel (hydroxypropylcellulose) (HPC)) was 104 % of control and 111 % of control and the T/C (dose: 0.62 mg/kg/injection, schedule: Q01DX009 (ip), vehicle: Klucel (hydroxypropylcellulose) (HPC)) was 153 % of control and 157 % of control.

`C=CCCCC1(c2ccccc2)C(=O)Oc2ccccc21` (stereo not given) was tested, and the T/C [9] was 98 % of control, the T/C [10] was 89 % of control and the T/C [11] was 90 % of control.

`C[P+](CCOC(=O)NC(Cc1ccccc1)C(=O)O)(c1ccccc1)c1ccccc1` (stereo not given) was tested, and the T/C [12] was 94 % of control and the T/C [13] was 103 % of control.

`CSc1nc(COC(=O)NC(C)C)c(COC(=O)NC(C)C)n1Cc1ccccc1` was tested, and the T/C [14] was 98 % of control, the T/C [15] was 101 % of control and the T/C [9] was 100 % of control and 110 % of control. For the same compound, the T/C [10] was 98 % of control and 111 % of control and the T/C [11] was 116 % of control.

For `Cc1ccccc1NC(=O)C(=O)C(C#N)c1c(Cl)cccc1Cl` (stereo not given), the T/C [3] was 114 % of control, the T/C [4] was 100 % of control and the T/C [5] was 99 % of control.

In the case of `CN(C)C(n1cc2c(c1)-c1ccc(Cl)cc1C(c1ccccc1F)=NC2)n1cc2c(c1)-c1ccc(Cl)cc1C(c1ccccc1F)=NC2`, the T/C [3] is reported as 93 % of control, the T/C [4] is reported as 92 % of control and the T/C [5] is reported as 91 % of control.

In the case of `Cc1nc2ccccc2c(N)c1-c1cc(C)c2c(C)nc3ccccc3c2n1`, the T/C (dose: 25.0 mg/kg/injection, schedule: Q01DX005 (ip), vehicle: Klucel (hydroxypropylcellulose) (HPC)) is reported as 88 % of control, the T/C [16] is reported as 87 % of control and the T/C [17] is reported as 90 % of control. The T/C [18] was 88 % of control.

In the case of `O=C(O)c1ccc2nc(-c3ccccc3)cn2c1`, the T/C (dose: 12.5 mg/kg/injection, schedule: Q04DX003 (ip), vehicle: saline with Tween-80) is reported as 98 % of control, the T/C (dose: 25.0 mg/kg/injection, schedule: Q04DX003 (ip), vehicle: saline with Tween-80) is reported as 98 % of control and the T/C (dose: 50.0 mg/kg/injection, schedule: Q04DX003 (ip), vehicle: saline with Tween-80) is reported as 101 % of control and 105 % of control. The T/C [19] was 106 % of control.

For `CCOC(=O)C1=C(C)NC(=O)NC1c1ccc([N+](=O)[O-])s1` (stereo not given), the T/C [16] was 87 % of control, the T/C [17] was 97 % of control and the T/C [18] was 91 % of control.

In the case of `O=C(/C(=C/c1ccccc1)c1ccc(Cl)cc1)c1ccccc1`, the T/C [19] is reported as 116 % of control, the T/C (dose: 200.0 mg/kg/injection, schedule: Q04DX003 (ip), vehicle: saline with Tween-80) is reported as 100 % of control and the T/C (dose: 400.0 mg/kg/injection, schedule: Q04DX003 (ip), vehicle: saline with Tween-80) is reported as 103 % of control.

In the case of `CC#CC#C/C(=C/C=CC(=O)OC)SC`, the T/C [1] is reported as 110 % of control, the T/C [2] is reported as 106 % of control and the T/C [6] is reported as 101 % of control. The T/C [7] was 104 % of control.

For `Cn1cnc([N+](=O)[O-])c1Sc1nnc(-c2ccccc2)c(-c2ccccc2)n1`, the T/C [16] was 88 % of control, the T/C [17] was 86 % of control and the T/C [18] was 92 % of control.

With `Clc1ccc2c(NCCN3CCCCCC3)nc(C(Cl)(Cl)Cl)nc2c1` the T/C [12] was 100 % of control, the T/C [13] was 104 % of control and the T/C (dose: 200.0 mg/kg/injection, schedule: Q01DX009 (ip), vehicle: saline with Tween-80) was 100 % of control.

`CCn1c(C)c(COC(=O)NC)c(COC(=O)NC)c1-c1ccc(Cl)c(Cl)c1` was tested, and the T/C (dose: 6.25 mg/kg/injection, schedule: Q01DX009 (ip), vehicle: distilled water + Tween-80) was 150 % of control and 152 % of control and the T/C (dose: 12.5 mg/kg/injection, schedule: Q01DX009 (ip), vehicle: distilled water + Tween-80) was 153 % of control.

In the case of `Cc1ccc(C(=O)N=[N+]=[N-])o1`, the T/C (dose: 12.5 mg/kg/injection, schedule: Q01DX009 (ip), vehicle: saline with Tween-80) is reported as 98 % of control, the T/C (dose: 25.0 mg/kg/injection, schedule: Q01DX009 (ip), vehicle: saline with Tween-80) is reported as 100 % of control and the T/C [12] is reported as 100 % of control.

In the case of `Cc1ccc(C2(c3ccccc3)OC3OC=CC32)cc1` (stereo not given), the T/C [15] is reported as 97 % of control, the T/C [9] is reported as 101 % of control and the T/C [3] is reported as 96 % of control. For the same compound, the T/C [10] was 100 % of control and the T/C [5] was 96 % of control.

In the case of `NCCCCC(NC(=O)C(N)CCCN=C(N)N)C(=O)O` (stereo not drawn) (H-Arg-Lys-OH; configuration not given here), the T/C [20] is reported as 94 % of control, the T/C [21] is reported as 106 % of control and the T/C [22] is reported as 100 % of control.

For `NC(=O)CS(=O)CC(N)C(=O)O` (stereo not given), the T/C [20] was 100 % of control, the T/C [21] was 105 % of control and the T/C [22] was 95 % of control.

In the case of `CCCCCCCCCCN(CCCCCCCCCC)CC(O)c1ccc2nc3c(cc2c1)CCCC3` (stereo not given), the T/C [14] is reported as 101 % of control, the T/C [15] is reported as 101 % of control and the T/C [9] is reported as 102 % of control and 94 % of control.

With `c1cncc(-c2n[nH]c3c2CCCc2ccccc2-3)c1` the T/C (dose: 12.5 mg/kg/injection, schedule: Q01DX009 (ip), vehicle: other) was 107 % of control, the T/C (dose: 25.0 mg/kg/injection, schedule: Q01DX009 (ip), vehicle: other) was 100 % of control and the T/C (dose: 50.0 mg/kg/injection, schedule: Q01DX009 (ip), vehicle: other) was 107 % of control. For the same compound, the T/C (dose: 100.0 mg/kg/injection, schedule: Q01DX009 (ip), vehicle: other) was 96 % of control and the T/C (dose: 200.0 mg/kg/injection, schedule: Q01DX009 (ip), vehicle: other) was 105 % of control.

For `CCOC(=O)/C=C1\CONC(c2ccc(OC)cc2)=N1`, the T/C [3] was 106 % of control, the T/C [4] was 97 % of control and the T/C [5] was 105 % of control.

In the case of `Cc1cc(-c2ccccc2)nc2nc3ccccc3n12`, the T/C [3] is reported as 105 % of control, the T/C [4] is reported as 103 % of control and the T/C [5] is reported as 103 % of control.

`COc1ccc(CCN2C(=O)C(=O)N(C)C2=O)cc1OC` was tested, and the T/C [6] was 90 % of control, the T/C [7] was 96 % of control and the T/C [8] was 102 % of control.

For `COc1ccc2c(c1)[C@@H](NC(C)=O)CCc1cc(OC)c(OC)c(OC)c1-2`, the T/C (dose: 0.25 mg/kg/injection, schedule: Q01DX005 (ip), vehicle: saline) was 100 % of control and 108 % of control, the T/C (dose: 0.5 mg/kg/injection, schedule: Q01DX005 (ip), vehicle: saline) was 102 % of control and 105 % of control and the T/C (dose: 1.0 mg/kg/injection, schedule: Q01DX005 (ip), vehicle: saline) was 104 % of control and 108 % of control. For the same compound, the T/C (dose: 2.0 mg/kg/injection, schedule: Q01DX005 (ip), vehicle: saline) was 110 % of control and 96 % of control and the T/C (dose: 4.0 mg/kg/injection, schedule: Q01DX005 (ip), vehicle: saline) was 98 % of control and 108 % of control.

In the case of `Cc1nc(Nc2ccc(F)cc2)c2c(C)c(Cc3ccccc3)[nH]c2n1`, the T/C [16] is reported as 88 % of control, the T/C [17] is reported as 89 % of control and the T/C [18] is reported as 94 % of control.
